Read-outs that look alike come from different tables or passages of the source.
How the values were obtained:
Format in all cases: cell-based
[1] = target: EGFR (H773insNPH) expressing Ba/F3 stable cell line (Homo sapiens, UniProt P00533, DUP771-773, cells depend on it); experiment: Cellular proliferation (Alamar Blue) assay, EGFR H773insNPH Ba/F3; conditions: 72 hr, read-out: NPH IC50
Procedure: • 1. EGFR(D770_N771insSVD) expressing Ba/F3 stable cell line • 2. EGFR (A767_dupASV) expressing Ba/F3 stable cell line • 3. A431 cells • 4. EGFR (H773insNPH) expressing Ba/F3 stable cell line • 5. HER2 (A775_G776insYVMA) expressing Ba/F3 stable cell line Assay Procedure: • 1. Seed cells at 5000 for A431 and 15,000 cells for Ba/F3 in 100 μL/well in complete media (for A431: DMEM with […] and for Ba/F3 cells: RPMI with 10% FBS) in 96-well tissue culture plate. Leave outer wells without cells for background measurements. Incubate at 37 degree Celsius in […] humidified incubator for 16-18 hours. • 2. Add 0.025 ml of 5× concentration compound dilution or DMSO control. Final compound concentration range is 10-0.0005 μM prepared in 3-fold serial dilutions. Incubate for 72 hr at 37 degree Celsius in […] humidified incubator. • 3. Add 0.0125 ml Alamar Blue™ reagent to each well with multi-channel pipette and tap gently on each side of the plate to mix. Incubate for 3 hours at 37 degree Celsius in 5% CO2 humidified incubator. • 4. […] Data analysis was performed using XLfit 5.5.0.5.

[2] = target: EGFR (A767_dupASV) expressing Ba/F3 stable cell line (Homo sapiens, UniProt P00533, DUP767-769, cells depend on it); experiment: Cellular proliferation (Alamar Blue) assay, EGFR A767_dupASV Ba/F3; conditions: 72 hr, read-out: A767 IC50
EGFR (A767_dupASV) expressing Ba/F3 stable cell line, sequence (P00533 with tags, fused parts or gaps DUP767-769): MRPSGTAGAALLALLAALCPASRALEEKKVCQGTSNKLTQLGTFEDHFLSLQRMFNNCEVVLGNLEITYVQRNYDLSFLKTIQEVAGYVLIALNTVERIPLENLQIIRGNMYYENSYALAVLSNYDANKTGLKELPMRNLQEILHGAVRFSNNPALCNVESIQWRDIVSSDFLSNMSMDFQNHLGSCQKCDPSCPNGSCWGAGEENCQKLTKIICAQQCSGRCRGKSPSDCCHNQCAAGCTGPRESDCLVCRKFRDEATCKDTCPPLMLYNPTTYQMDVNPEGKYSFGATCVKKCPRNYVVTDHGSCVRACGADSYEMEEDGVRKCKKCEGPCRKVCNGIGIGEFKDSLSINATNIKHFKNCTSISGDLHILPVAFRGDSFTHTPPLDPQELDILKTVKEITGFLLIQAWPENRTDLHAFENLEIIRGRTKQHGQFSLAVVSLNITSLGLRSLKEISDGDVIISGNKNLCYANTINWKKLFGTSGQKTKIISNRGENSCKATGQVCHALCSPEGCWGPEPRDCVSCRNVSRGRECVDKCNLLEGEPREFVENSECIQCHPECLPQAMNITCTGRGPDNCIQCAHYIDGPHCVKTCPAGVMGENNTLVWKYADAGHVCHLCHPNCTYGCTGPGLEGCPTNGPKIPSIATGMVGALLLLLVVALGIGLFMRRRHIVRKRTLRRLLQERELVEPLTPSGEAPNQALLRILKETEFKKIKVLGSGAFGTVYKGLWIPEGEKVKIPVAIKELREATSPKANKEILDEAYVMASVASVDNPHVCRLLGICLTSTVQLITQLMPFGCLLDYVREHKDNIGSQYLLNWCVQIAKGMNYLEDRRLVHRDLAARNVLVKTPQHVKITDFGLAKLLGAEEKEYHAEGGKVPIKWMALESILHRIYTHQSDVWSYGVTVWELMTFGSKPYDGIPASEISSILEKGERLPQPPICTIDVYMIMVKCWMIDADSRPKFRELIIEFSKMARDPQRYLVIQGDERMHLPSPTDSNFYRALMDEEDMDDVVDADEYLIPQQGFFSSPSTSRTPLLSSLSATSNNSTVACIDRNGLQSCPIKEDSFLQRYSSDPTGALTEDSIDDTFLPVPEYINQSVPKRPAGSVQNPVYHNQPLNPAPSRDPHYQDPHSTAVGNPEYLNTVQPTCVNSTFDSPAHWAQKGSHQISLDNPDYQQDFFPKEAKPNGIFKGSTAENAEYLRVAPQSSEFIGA
In short: (§1)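 Proliferation of mutant-dependent Ba/F3 lines is measured by Alamar Blue reduction over 3 hours, following a 72 hr incubation with test compound spanning 10-0.0005 μM final in threefold dilutions. Cells go in at 15,000 per well in RPMI containing 10% FBS the day before dosing.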

[3] = tested on: A431 cells; experiment: Cellular proliferation (Alamar Blue) assay, A431
[4] = target: EGFR(D770_N771insSVD) expressing Ba/F3 stable cell line (Homo sapiens, UniProt P00533, DUP768-770, cells depend on it); experiment: Cellular proliferation (Alamar Blue) assay, EGFR D770_N771insSVD Ba/F3; conditions: 72 hr, read-out: D770 IC50
EGFR(D770_N771insSVD) expressing Ba/F3 stable cell line, sequence (P00533 with tags, fused parts or gaps DUP768-770): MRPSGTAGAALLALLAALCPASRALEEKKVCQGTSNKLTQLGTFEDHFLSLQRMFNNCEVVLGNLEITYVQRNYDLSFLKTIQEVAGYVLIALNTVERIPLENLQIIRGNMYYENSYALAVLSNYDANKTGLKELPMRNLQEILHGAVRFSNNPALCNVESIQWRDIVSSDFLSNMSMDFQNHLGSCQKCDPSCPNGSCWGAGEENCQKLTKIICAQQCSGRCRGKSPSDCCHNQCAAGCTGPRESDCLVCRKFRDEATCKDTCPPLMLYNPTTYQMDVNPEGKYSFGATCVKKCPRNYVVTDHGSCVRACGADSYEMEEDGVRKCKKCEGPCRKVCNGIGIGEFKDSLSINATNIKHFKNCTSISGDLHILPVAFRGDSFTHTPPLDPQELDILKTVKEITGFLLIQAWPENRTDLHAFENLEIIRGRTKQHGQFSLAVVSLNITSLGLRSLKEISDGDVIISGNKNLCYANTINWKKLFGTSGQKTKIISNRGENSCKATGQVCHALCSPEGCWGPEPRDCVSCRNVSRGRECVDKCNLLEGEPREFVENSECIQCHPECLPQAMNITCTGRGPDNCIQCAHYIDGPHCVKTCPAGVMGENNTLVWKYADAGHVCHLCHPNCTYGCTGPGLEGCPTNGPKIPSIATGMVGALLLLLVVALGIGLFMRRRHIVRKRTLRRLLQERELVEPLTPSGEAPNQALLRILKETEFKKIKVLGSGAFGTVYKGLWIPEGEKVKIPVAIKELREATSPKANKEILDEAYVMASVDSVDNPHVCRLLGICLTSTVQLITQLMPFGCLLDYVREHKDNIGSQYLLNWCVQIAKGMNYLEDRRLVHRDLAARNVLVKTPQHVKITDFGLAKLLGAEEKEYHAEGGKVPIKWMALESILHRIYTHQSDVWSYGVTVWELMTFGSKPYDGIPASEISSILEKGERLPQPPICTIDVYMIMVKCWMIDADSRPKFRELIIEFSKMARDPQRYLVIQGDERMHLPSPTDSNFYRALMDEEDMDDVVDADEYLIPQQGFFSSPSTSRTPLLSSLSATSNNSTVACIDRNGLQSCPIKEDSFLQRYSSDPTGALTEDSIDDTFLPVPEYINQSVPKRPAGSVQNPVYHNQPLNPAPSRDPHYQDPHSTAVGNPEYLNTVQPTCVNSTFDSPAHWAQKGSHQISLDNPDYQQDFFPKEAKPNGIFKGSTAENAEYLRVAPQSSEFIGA
In short: as §1

[5] = target: HER2 (A775_G776insYVMA) expressing Ba/F3 stable cell line (Homo sapiens, UniProt P04626, DUP772-775, cells depend on it); experiment: Cellular proliferation (Alamar Blue) assay, HER2 A775_G776insYVMA Ba/F3; conditions: 72 hr, read-out: YVMA IC50
HER2 (A775_G776insYVMA) expressing Ba/F3 stable cell line, sequence (P04626 with tags, fused parts or gaps DUP772-775): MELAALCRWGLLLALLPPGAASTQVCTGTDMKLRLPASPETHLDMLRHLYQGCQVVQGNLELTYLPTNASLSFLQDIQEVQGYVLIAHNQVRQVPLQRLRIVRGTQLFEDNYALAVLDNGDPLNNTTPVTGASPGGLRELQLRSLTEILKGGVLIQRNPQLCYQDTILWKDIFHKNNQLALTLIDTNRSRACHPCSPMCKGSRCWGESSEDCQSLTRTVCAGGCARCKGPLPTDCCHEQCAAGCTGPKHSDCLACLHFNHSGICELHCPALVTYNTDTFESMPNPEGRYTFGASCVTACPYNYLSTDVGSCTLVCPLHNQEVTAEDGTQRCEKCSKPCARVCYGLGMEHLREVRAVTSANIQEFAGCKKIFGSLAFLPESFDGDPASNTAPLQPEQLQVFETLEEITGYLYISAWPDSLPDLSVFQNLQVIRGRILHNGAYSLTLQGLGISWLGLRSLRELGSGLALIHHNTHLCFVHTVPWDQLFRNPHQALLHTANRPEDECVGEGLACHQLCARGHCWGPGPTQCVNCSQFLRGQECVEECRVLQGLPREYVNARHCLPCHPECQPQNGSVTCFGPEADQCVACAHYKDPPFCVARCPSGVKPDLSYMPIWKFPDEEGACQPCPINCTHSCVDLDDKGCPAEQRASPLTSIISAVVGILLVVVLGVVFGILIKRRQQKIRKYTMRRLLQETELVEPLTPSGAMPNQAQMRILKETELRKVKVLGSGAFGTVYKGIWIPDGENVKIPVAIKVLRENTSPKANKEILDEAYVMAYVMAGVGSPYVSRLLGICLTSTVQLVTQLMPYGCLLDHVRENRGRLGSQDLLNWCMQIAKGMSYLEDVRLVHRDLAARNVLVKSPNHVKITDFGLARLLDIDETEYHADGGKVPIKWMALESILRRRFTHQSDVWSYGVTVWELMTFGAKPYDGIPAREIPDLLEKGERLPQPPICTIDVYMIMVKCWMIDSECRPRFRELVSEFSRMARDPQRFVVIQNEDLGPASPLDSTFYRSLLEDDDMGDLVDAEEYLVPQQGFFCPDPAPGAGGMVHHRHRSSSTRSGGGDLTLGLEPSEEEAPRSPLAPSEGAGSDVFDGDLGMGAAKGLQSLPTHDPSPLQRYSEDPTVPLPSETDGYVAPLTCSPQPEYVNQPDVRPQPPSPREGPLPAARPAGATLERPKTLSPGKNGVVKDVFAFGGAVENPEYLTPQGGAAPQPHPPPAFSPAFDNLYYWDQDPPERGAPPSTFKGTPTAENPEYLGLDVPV
In short: as §1

[6] = Homo sapiens, A-431; A431 cells, Alamar Blue, 72 hr; read-out: A431 IC50
[7] = Homo sapiens, A-431; A431 cells, 72 hr, Alamar Blue; read-out: A431 IC50

EGFR (H773insNPH) expressing Ba/F3 stable cell line, sequence (P00533 with tags, fused parts or gaps DUP771-773): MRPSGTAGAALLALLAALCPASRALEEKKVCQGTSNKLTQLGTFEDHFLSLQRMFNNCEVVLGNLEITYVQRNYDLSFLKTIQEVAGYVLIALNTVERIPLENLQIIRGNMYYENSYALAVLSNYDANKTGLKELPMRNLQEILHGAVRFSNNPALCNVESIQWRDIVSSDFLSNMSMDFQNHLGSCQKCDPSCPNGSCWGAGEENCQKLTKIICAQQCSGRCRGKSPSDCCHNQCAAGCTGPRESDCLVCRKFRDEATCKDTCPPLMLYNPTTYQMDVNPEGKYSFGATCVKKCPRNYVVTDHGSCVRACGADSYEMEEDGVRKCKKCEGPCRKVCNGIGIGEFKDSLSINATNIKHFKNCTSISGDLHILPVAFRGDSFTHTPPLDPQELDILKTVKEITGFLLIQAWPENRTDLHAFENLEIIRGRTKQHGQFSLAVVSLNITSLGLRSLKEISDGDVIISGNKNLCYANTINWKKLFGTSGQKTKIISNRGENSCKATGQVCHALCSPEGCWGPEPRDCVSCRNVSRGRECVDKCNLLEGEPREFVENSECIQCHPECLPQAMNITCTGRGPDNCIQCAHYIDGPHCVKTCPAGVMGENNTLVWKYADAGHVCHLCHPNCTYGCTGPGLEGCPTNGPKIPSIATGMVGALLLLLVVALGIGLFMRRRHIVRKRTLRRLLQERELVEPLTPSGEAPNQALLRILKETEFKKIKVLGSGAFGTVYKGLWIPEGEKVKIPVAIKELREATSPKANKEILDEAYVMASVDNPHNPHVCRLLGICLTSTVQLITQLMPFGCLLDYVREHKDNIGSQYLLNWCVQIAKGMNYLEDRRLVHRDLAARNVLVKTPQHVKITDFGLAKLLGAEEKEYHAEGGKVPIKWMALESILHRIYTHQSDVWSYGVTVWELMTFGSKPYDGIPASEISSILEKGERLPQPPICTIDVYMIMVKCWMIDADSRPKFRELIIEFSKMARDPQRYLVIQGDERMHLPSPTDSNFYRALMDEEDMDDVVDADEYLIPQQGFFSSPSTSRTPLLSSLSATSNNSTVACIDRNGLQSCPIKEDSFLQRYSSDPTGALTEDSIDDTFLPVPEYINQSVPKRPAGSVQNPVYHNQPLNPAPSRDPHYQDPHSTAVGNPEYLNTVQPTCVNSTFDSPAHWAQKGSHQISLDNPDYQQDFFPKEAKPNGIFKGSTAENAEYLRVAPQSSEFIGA

Structure (SMILES)	GI50 [1]	GI50 [2]	IC50 [3, 6]	GI50 [4]	GI50 [5]	IC50 [3, 7]
C=CC(=O)Nc1ccc(F)c(Nc2nc(Nc3cnn(C4CCC(O)CC4)c3)ncc2Cl)c1 (centres unmarked) [Compound 1, N-(3-((5-chloro-2-((1-(4-hydroxycyclohexyl)-1H-pyrazol-4-yl)amino)pyrimidin-4-yl)amino)-4-fluorophenyl)acrylamide]	796 nM	930 nM	3920 nM	1030 nM	–	–
C=CC(=O)Nc1ccc(F)c(Nc2nc(Nc3ccc(OC)nc3)ncc2Cl)c1 [Compound 22, N-(3-((5-chloro-2-((6-methoxypyridin-3-yl)amino)pyrimidin-4-yl)amino)-4-fluorophenyl)acrylamide]	4740 nM	3000 nM	7100 nM	7950 nM	–	–
C=C(F)C(=O)Nc1ccc(F)c(Nc2nc(Nc3cnn(C)c3)ncc2Cl)c1 [Compound 23, N-(3-((5-chloro-2-((1-methyl-1H-pyrazol-4-yl)amino)pyrimidin-4-yl)amino)-4-fluorophenyl)-2-fluoroacrylamide]	4470 nM	9920 nM	> 10000 nM	> 10000 nM	–	–
C=C(F)C(=O)NC1CCCC(Nc2nc(Nc3cnn(C)c3)ncc2Cl)C1 (centres unmarked) [Compound 24]	4130 nM	> 10000 nM	> 10000 nM	> 10000 nM	–	–
C=C(F)C(=O)N1CCCC(Nc2nc(Nc3cnn(C)c3)ncc2Cl)C1 (centres unmarked) [Compound 25, 1-(3-((5-chloro-2-((1-methyl-1H-pyrazol-4-yl)amino)pyrimidin-4-yl)amino)piperidin-1-yl)-2-fluoroprop-2-en-1-one]	> 10000 nM	> 10000 nM	> 10000 nM	> 10000 nM	–	–
C=CC(=O)Nc1ccc(F)c(Nc2nc(Nc3cnn(CC(C)(C)O)c3)ncc2Cl)c1 [Compound 26, N-(3-((5-chloro-2-((1-(2-hydroxy-2-methylpropyl)-1H-pyrazol-4-yl)amino)pyrimidin-4-yl)amino)-4-fluorophenyl)acrylamide]	2090 nM	2450 nM	7410 nM	4860 nM	–	–
C=CC(=O)Nc1cccc(Nc2nc(Nc3cnn(C)c3)ncc2NC(=O)c2ccccc2)c1 [Compound 28, N-(4-((3-acrylamidophenyl)amino)-2-((1-methyl-1H-pyrazol-4-yl)amino)pyrimidin-5-yl)benzamide]	3010 nM	2240 nM	> 10000 nM	3130 nM	–	–
C=CC(=O)Nc1cccc(Nc2nc(Nc3cnn(C)c3)ncc2C(=O)NC(C)c2ccccc2)c1 (centres unmarked) [Compound 34, 4-((3-acrylamidophenyl)amino)-2-((1-methyl-1H-pyrazol-4-yl)amino)-N-(1-phenylethyl)pyrimidine-5-carboxamide]	> 10000 nM	9310 nM	> 10000 nM	9520 nM	–	–
COc1cc(N2CCCCC2)ccc1Nc1ncc(C(=O)N(C)c2ccccc2)c(Nc2cccc(NC(=O)/C=C/CN(C)C)c2)n1 [Compound 52, (E)-4-((3-(4-(dimethylamino)but-2-enamido)phenyl)amino)-2-((2-methoxy-4-(piperidin-1-yl)phenyl)amino)-N-methyl-N-phenylpyrimidine-5-carboxamide]	> 10000 nM	982 nM	6560 nM	3260 nM	–	–
CN(C)C/C=C/C(=O)Nc1cccc(Nc2nc(Nc3cn(C)nc3Cl)ncc2-c2ccc(C(F)(F)F)cc2)c1 [Compound 53, (E)-N-(3-((2-((3-chloro-1-methyl-1H-pyrazol-4-yl)amino)-5-(4-(trifluoromethyl)phenyl)pyrimidin-4-yl)amino)phenyl)-4-(dimethylamino)but-2-enamide]	1890 nM	1020 nM	7300 nM	873 nM	–	–
CN(C)C/C=C/C(=O)Nc1cccc(Nc2nc(Nc3cn(C)nc3Cl)ncc2C(F)(F)F)c1 [Compound 54, (E)-N-(3-((2-((3-chloro-1-methyl-1H-pyrazol-4-yl)amino)-5-(trifluoromethyl)pyrimidin-4-yl)amino)phenyl)-4-(dimethylamino)but-2-enamide]	380 nM	1040 nM	4530 nM	296 nM	–	–
C=CC(=O)Nc1ccc(F)c(Nc2nc(Nc3cnn(C)c3)ncc2-c2ccc(Cl)nc2)c1 [Compound 101, N-(3-((5-(6-chloropyridin-3-yl)-2-((1-methyl-1H-pyrazol-4-yl)amino)pyrimidin-4-yl)amino)-4-fluorophenyl)acrylamide]	30 nM	13 nM	56 nM	–	–	–
C=CC(=O)Nc1ccc(F)c(Nc2nc(Nc3cnn(C)c3)ncc2-c2cnc(C(F)(F)F)nc2)c1 [Compound 123, N-(4-fluoro-3-((2-((1-methyl-1H-pyrazol-4-yl)amino)-2′-(trifluoromethyl)-[5,5′-bipyrimidin]-4-yl)amino)phenyl)acrylamide]	30 nM	16 nM	–	24 nM	–	–
C=CC(=O)Nc1ccc(F)c(Nc2nc(Nc3cnn(C)c3)ncc2-c2ccc(C(F)(F)C(F)(F)F)cc2)c1 [Compound 296, N-(4-fluoro-3-((2-((1-methyl-1H-pyrazol-4-yl)amino)-5-(4-(perfluoroethyl)phenyl)pyrimidin-4-yl)amino)phenyl)acrylamide]	–	106 nM	–	84 nM	971 nM	32 nM
C=CC(=O)Nc1ccc(F)c(Nc2nc(Nc3cnn(C)c3)ncc2-c2csc(Cl)c2)c1 [Compound 298, N-(3-((5-(5-chlorothiophen-3-yl)-2-((1-methyl-1H-pyrazol-4-yl)amino)pyrimidin-4-yl)amino)-4-fluorophenyl)acrylamide]	–	128 nM	–	99 nM	402 nM	120 nM
C=CC(=O)Nc1ccc(F)c(Nc2nc(Nc3cnn(C)c3)ncc2-c2ccc3ccoc3c2)c1 [Compound 299, N-(3-((5-(benzofuran-6-yl)-2-((1-methyl-1H-pyrazol-4-yl)amino)pyrimidin-4-yl)amino)-4-fluorophenyl)acrylamide]	–	257 nM	–	99 nM	339 nM	173 nM
C=CC(=O)Nc1ccc(F)c(Nc2nc(Nc3cnn(C)c3)ncc2-c2ccc(Oc3cccc(F)c3)cc2)c1 [Compound 300, N-(4-fluoro-3-((5-(4-(3-fluorophenoxy)phenyl)-2-((1-methyl-1H-pyrazol-4-yl)amino)pyrimidin-4-yl)amino)phenyl)acrylamide]	–	289 nM	–	1160 nM	9740 nM	229 nM
CN(C)C/C=C/C(=O)Nc1ccc(F)c(Nc2nc(Nc3cnn(C)c3)ncc2-c2ccc(CC(F)(F)F)cc2)c1 [Compound 301, (E)-4-(dimethylamino)-N-(4-fluoro-3-((2-((1-methyl-1H-pyrazol-4-yl)amino)-5-(4-(2,2,2-trifluoroethyl)phenyl)pyrimidin-4-yl)amino)phenyl)but-2-enamide]	–	68 nM	–	193 nM	187 nM	16 nM
C=CC(=O)Nc1cc(Br)cc(Nc2nc(Nc3cnn(C)c3)ncc2-c2ccc(CC(F)(F)F)cc2)c1 [Compound 302, N-(3-bromo-5-((2-((1-methyl-1H-pyrazol-4-yl)amino)-5-(4-(2,2,2-trifluoroethyl)phenyl)pyrimidin-4-yl)amino)phenyl)acrylamide]	–	67 nM	–	99 nM	653 nM	12 nM

— patent publication US12686673B2 (Blueprint Medicines Corporation, priority 2020, dated 2026)
